Test results: BindingDB's records for doi:10.1016/j.ejmech.2018.10.033 (Key Laboratory of Molecular Pharmacology and Drug …, 2019)

Assays:
[1] = Reversal of P-gp-mediated drug resistance in human KBV cells assessed as potentiation of paclitaxel-induced cytotoxicity by measuring paclitaxel IC50 at 5 uM after 24 hrs by MTT assay (Rvb = 3837.57 uM)
[2] = Reversal of P-gp-mediated drug resistance in human KBV cells assessed as potentiation of paclitaxel-induced cytotoxicity by measuring paclitaxel IC50 at 5 uM after 48 hrs by MTT assay (Rvb = 1396.57 uM)
[3] = Reversal of P-gp-mediated drug resistance in human KBV cells assessed as potentiation of paclitaxel-induced cytotoxicity by measuring paclitaxel IC50 at 10 uM after 48 hrs by MTT assay (Rvb = 1396.57 uM)
[4] = Reversal of P-gp-mediated drug resistance in human KBV cells assessed as potentiation of paclitaxel-induced cytotoxicity by measuring paclitaxel IC50 at 10 uM after 24 hrs by MTT assay (Rvb = 3837.57 uM)
[5] = Reversal of P-gp-mediated drug resistance in human KBV cells assessed as potentiation of paclitaxel-induced cytotoxicity by measuring paclitaxel IC50 at 5 uM after 72 hrs by MTT assay (Rvb = 398.34 +/- 0.58 uM)
[6] = Reversal of P-gp-mediated drug resistance in human KBV cells assessed as potentiation of paclitaxel-induced cytotoxicity by measuring paclitaxel IC50 at 10 uM after 72 hrs by MTT assay (Rvb = 398.34 +/- 0.58 uM)
[7] = Reversal of P-gp-mediated drug resistance in human KBV cells assessed as potentiation of paclitaxel-induced cytotoxicity by measuring paclitaxel IC50 at 10 uM

Structure (SMILES): CN(C)CCCOC(=O)[C@]12CCC(C)(C)C[C@H]1C1=CC[C@@H]3[C@@]4(C)Cc5nccnc5[C@@](C)(CO)[C@@H]4CC[C@@]3(C)[C@]1(C)CC2
- IC50 [1]: 49.8 nM
- IC50 [2]: 21.2 nM
- IC50 [3]: 17.2 nM
- IC50 [4]: 35 nM
- IC50 [5]: 12.3 nM
- IC50 [6]: 1.59 nM

Structure (SMILES): CC1(C)CC[C@]2(C(=O)OCc3ccccc3)CC[C@]3(C)C(=CC[C@@H]4[C@@]5(C)Cc6nccnc6[C@@](C)(CO)[C@@H]5CC[C@]43C)[C@@H]2C1
- IC50 [7]: 2.4 nM
